The values below come from the Kinase Knowledgebase extract (Sharma et al. 2016).

For orientation: Ki means the dissociation constant of the complex between target and ligand, obtained from inhibition or displacement. High values mean weaker binding, low ones tighter binding.

This assay concerns the target CDK2 (human) (UniProt P24941). Briefly: Enzyme Assay.
For the compound `COc1cccc(Nc2nccc(-c3sc(=O)n(C)c3C)n2)c1`, the Ki turned out to be 70 nM. With `CCOc1ccccc1Nc1nccc(-c2sc(=O)n(C)c2C)n1`, the Ki was above 10000 nM.

Consider `Cc1c(-c2ccnc(Nc3ccccc3C(F)(F)F)n2)sc(=O)n1C`, for which the Ki is above 10000 nM. In turn, `Cc1cc(F)ccc1Nc1nccc(-c2sc(=O)n(C)c2C)n1` had a Ki of 490 nM.

In turn, `CCc1ccc(Nc2nccc(-c3sc(=O)n(C)c3C)n2)cc1` had a Ki of 50 nM.

For `Cc1ccc(Nc2nccc(-c3sc(=O)n(C)c3C)n2)cc1`, the inhibition constant (Ki) came to 40 nM. In turn, `COc1ccccc1Nc1nccc(-c2sc(=O)n(C)c2C)n1` showed a Ki of 2470 nM. To `COc1ccc(Nc2nccc(-c3sc(=O)n(C)c3C)n2)c(OC)c1` belongs above 10000 nM; to `Cc1cccc(Nc2nccc(-c3sc(=O)n(C)c3C)n2)c1`, 20 nM. In the case of `COc1cc(Cl)ccc1Nc1nccc(-c2sc(=O)n(C)c2C)n1`, the Ki is 2230 nM. On to `Cc1c(-c2ccnc(Nc3cccc(NS(C)(=O)=O)c3)n2)sc(=O)n1C`, for which the inhibition constant (Ki) was 30 nM. Compound `CC(=O)c1cccc(Nc2nccc(-c3sc(=O)n(C)c3C)n2)c1` showed a Ki of 20 nM. The same measure for `Cc1ccccc1Nc1nccc(-c2sc(=O)n(C)c2C)n1`: 460 nM; for `Cc1c(-c2ccnc(Nc3ccccc3)n2)sc(=O)n1C`: 40 nM; for `Cc1c(-c2ccnc(Nc3ccccc3OC(F)F)n2)sc(=O)n1C`: 5360 nM.

Compound `Cc1c(Nc2nccc(-c3sc(=O)n(C)c3C)n2)cccc1NS(C)(=O)=O` registered a Ki of 190 nM.

With `COc1ccc(Nc2nccc(-c3sc(=O)n(C)c3C)n2)cc1`, the Ki worked out at 700 nM.

Take `CCc1ccccc1Nc1nccc(-c2sc(=O)n(C)c2C)n1`: the Ki amounted to 1230 nM.
